Read-outs that look alike come from different tables or passages of the source.
Assays:
[1] = test system: T. gondii β-gal tachyzoites; assay: In vitro proliferation of T. gondii β-gal tachyzoites in HFF, β-galactosidase colorimetric test (primary screening and IC50); format: cell-based, Toxoplasma gondii; settings: for T. Gondii β-gal Growth (%): 72 h, tachyzoites in HFF, vs 0.1% DMSO control = 100%; for IC50: eight serial concentrations 7 nM to 1 µM; for IC50 fold lower compared to pyrimethamine: T. gondii β-gal, pyrimethamine IC50 = 0.326 µM
Description: In a primary screening, each compound was evaluated at two concentrations 0.1 and 1 µM and added to the media prior to the infection as previously described. Control non-infected non-treated HFF cultures and T. gondii β-gal infected but not-treated cultures were cultivated in complete medium containing 0.01 or 0.1% DMSO. The 96-well plates were incubated for 72 h at 37 °C/5% CO2 as previously described.
For the IC50 determination on T. gondii β-gal, eight serial concentrations ranging from 7 nM to 1 μM were tested for each selected compound as previously described and the β-galactosidase assay was performed as reported. Briefly, infected HFF cultures in 96-well plates were lysed with PBS containing 0.05% Triton X-100. Then the substrate chlorophenolred-β-D-galactopyranoside (CPRG; Roche Diagnostics, Rotkreuz, Switzerland) was added in a final concentration of 0.5 mM. Absorption was measured at 570 nm wavelength using an EnSpire® multimode plate reader (PerkinElmer, Inc., Waltham, MA, USA).

[2] = test system: human foreskin fibroblasts (HFF); assay: in vitro
Description: (§1) The viability of treated HFF was measured by the alamarBlue metabolic assay, and the proliferation of T. gondii β-gal was quantified by the β-galactosidase colorimetric test. In both cases, results are expressed as percentage (%) compared to control parasitic and host cells treated with 0.1% DMSO for which proliferation and viability were set to 100% (Table 1).
(§2) All tissue culture media were purchased from Gibco-BRL, and biochemical agents from Sigma-Aldrich. […] Transgenic T. gondii β-gal tachyzoites (expressing the β-galactosidase gene from Escherichia coli) from RH strain were kindly provided by Prof.
(§3) The screening sequence for the compounds was described in previous reports. All compounds were prepared as 1 mM stock solutions from powder in dimethyl sulfoxide (DMSO, Sigma, St. Louis, MO, USA). For in vitro activity and cytotoxicity assays, HFF were seeded at 5 × 10^3/well in 96 well plates and allowed to grow to confluence in complete culture medium at 37 °C and 5% CO2.
(§4) All calculations were performed using the corresponding software tool contained in the Excel software package (Microsoft, Redmond, WA, USA). […] Then the medium was removed, the plates were washed once with PBS and 200 μL of resazurin (1:200 dilution in PBS) were added to each well. […] Fluorescence was measured at two different time points: T0 as starting timepoint and T5h as at 5 h later. Relative fluorescence units were calculated from time points with linear increases.

[3] = Stability in DMSO-d6 followed by 1H NMR; settings: 25 °C, 5 min and more than 1 month after sample preparation
[4] = test system: T. gondii β-gal tachyzoites; design: method as in PMID 34144354, PMID 32347622, doi:10.3390/inorganics9080059, PMID 36500266; settings: cited from earlier work; for T. Gondii β-gal Growth (%): tachyzoites in HFF, vs 0.1% DMSO control = 100%
[5] = test system: human foreskin fibroblasts (HFF); design: method as in PMID 34144354, PMID 32347622, doi:10.3390/inorganics9080059, PMID 36500266; settings: cited from earlier work; for HFF Viability (%): non-infected HFF, vs 0.1% DMSO control = 100%; for HFF Viability at 2.5 µM (%): control 0.25% DMSO = 100%
in vitro = settings: human
Description: as §1, §2, §3, §4

Compound | T. Gondii β-gal Growth (%) ([1]; 0.1 µM) | T. Gondii β-gal Growth (%) ([1]; 1 µM) | IC50 [1] [nM] | HFF Viability (%) ([2]; 0.1 µM) | HFF Viability (%) ([2]; 1 µM) | IC50 [4] [nM] | T. Gondii β-gal Growth (%) ([4]; 0.1 µM) | T. Gondii β-gal Growth (%) ([4]; 1 µM) | HFF Viability (%) ([5]; 0.1 µM) | HFF Viability (%) ([5]; 1 µM) | other results
C#CCCCC(=O)Oc1ccc([S-])cc1.CC(C)(C)c1ccc(C[S-])cc1.CC(C)(C)c1ccc(C[S-])cc1.Cc1ccc(C(C)C)cc1.Cc1ccc(C(C)C)cc1.[Cl-].[Ru+2].[Ru+2] [Compound 6] | 4 ± 0 | 0 ± 0 | 23 | – | – | – | – | – | – | – | –
CC(=O)OC[C@H]1O[C@@H](OCCn2cc(CCCC(=O)Nc3ccc([S-])cc3)nn2)[C@H](OC(C)=O)[C@@H](OC(C)=O)[C@H]1OC(C)=O.CC(C)(C)c1ccc(C[S-])cc1.CC(C)(C)c1ccc(C[S-])cc1.Cc1ccc(C(C)C)cc1.Cc1ccc(C(C)C)cc1.[Cl-].[Ru+2].[Ru+2] [Compound 22] | 73 ± 1 | 2 ± 0 | 298 | 100 ± 0 | 101 ± 0 | – | – | – | – | – | HFF Viability at 2.5 µM (%) [2]: 73%; Stability in DMSO-d6 (1H NMR spectra) [3]: no significant modifications
CCc1nc(N)nc(N)c1-c1ccc(Cl)cc1 [Pyrimethamine, reference compound] | – | – | – | – | – | 326 | – | – | – | – | –
CC(C)(C)c1ccc(C[S+]2[Ru-]3[S+](Cc4ccc(C(C)(C)C)cc4)[Ru-]2[S+]3c2ccc(N)cc2)cc1.Cc1ccc(C(C)C)cc1.Cc1ccc(C(C)C)cc1.[Cl-] (centres unmarked) [Compound 3] | – | – | – | – | – | 153 | 57 ± 1 | 2 ± 0 | 74 ± 2 | 48 ± 1 | HFF Viability at 2.5 µM (%) [5]: 51%
C#CCCCC(=O)Nc1ccc([S+]2[Ru-]3[S+](Cc4ccc(C(C)(C)C)cc4)[Ru-]2[S+]3Cc2ccc(C(C)(C)C)cc2)cc1.Cc1ccc(C(C)C)cc1.Cc1ccc(C(C)C)cc1.[Cl-] (centres unmarked) [Compound 7] | – | – | – | – | – | 38 | 21 ± 2 | 0 ± 0 | – | – | –
C#CCNC(=O)Cc1ccc([S-])cc1.CC(C)(C)c1ccc(C[S-])cc1.CC(C)(C)c1ccc(C[S-])cc1.Cc1ccc(C(C)C)cc1.Cc1ccc(C(C)C)cc1.[Cl-].[Ru+2].[Ru+2] [Compound 8] | – | – | – | – | – | – | 52 ± 13 | 3 ± 1 | 71 ± 2 | 46 ± 6 | –
CC(=O)OC[C@H]1O[C@@H](n2cc(CCCC(=O)Oc3ccc([S-])cc3)nn2)[C@H](OC(C)=O)[C@@H](OC(C)=O)[C@@H]1OC(C)=O.CC(C)(C)c1ccc(C[S-])cc1.CC(C)(C)c1ccc(C[S-])cc1.Cc1ccc(C(C)C)cc1.Cc1ccc(C(C)C)cc1.[Cl-].[Ru+2].[Ru+2] [Compound 19] | 9 ± 1 | 0 ± 0 | 18 | 102 ± 1 | 97 ± 1 | – | – | – | – | – | HFF Viability at 2.5 µM (%) [2]: 29%
CC(=O)OC[C@H]1O[C@@H](n2cc(CCCC(=O)Nc3ccc([S-])cc3)nn2)[C@H](OC(C)=O)[C@@H](OC(C)=O)[C@@H]1OC(C)=O.CC(C)(C)c1ccc(C[S-])cc1.CC(C)(C)c1ccc(C[S-])cc1.Cc1ccc(C(C)C)cc1.Cc1ccc(C(C)C)cc1.[Cl-].[Ru+2].[Ru+2] [Compound 20] | 100 ± 1 | 1 ± 2 | 110 | 98 ± 1 | 99 ± 0 | – | – | – | – | – | HFF Viability at 2.5 µM (%) [2]: 77%; Stability in DMSO-d6 (1H NMR spectra) [3]: no significant modifications
CC(C)(C)c1ccc(C[S-])cc1.CC(C)(C)c1ccc(C[S-])cc1.Cc1ccc(C(C)C)cc1.Cc1ccc(C(C)C)cc1.O=C(O)Cc1ccc([S-])cc1.[Cl-].[Ru+2].[Ru+2] [Compound 4] | – | – | – | – | – | – | 114 ± 2 | 110 ± 2 | 91 ± 4 | 73 ± 1 | –
CC(=O)OC[C@H]1O[C@@H](OCCCc2cn(Cc3ccccc3[S-])nn2)[C@H](OC(C)=O)[C@@H](OC(C)=O)[C@H]1OC(C)=O.CC(C)(C)c1ccc(C[S-])cc1.CC(C)(C)c1ccc(C[S-])cc1.Cc1ccc(C(C)C)cc1.Cc1ccc(C(C)C)cc1.[Cl-].[Ru+2].[Ru+2] [Compound 26] | 89 ± 1 | 0 ± 0 | 153 | 98 ± 1 | 99 ± 1 | – | – | – | – | – | IC50 fold lower compared to pyrimethamine [1]: 2 fold; HFF Viability at 2.5 µM (%) [2]: 97%; Stability in DMSO-d6 (1H NMR spectra) [3]: no significant modifications
CC(=O)OC[C@H]1O[C@@H](OCCCn2cc(CCCC(=O)Nc3ccc([S-])cc3)nn2)[C@H](OC(C)=O)[C@@H](OC(C)=O)[C@H]1OC(C)=O.CC(C)(C)c1ccc(C[S-])cc1.CC(C)(C)c1ccc(C[S-])cc1.Cc1ccc(C(C)C)cc1.Cc1ccc(C(C)C)cc1.[Cl-].[Ru+2].[Ru+2] [Compound 23] | 85 ± 1 | 1 ± 0 | 32 | 99 ± 1 | 101 ± 1 | – | – | – | – | – | IC50 fold lower compared to pyrimethamine [1]: 10 fold; HFF Viability at 2.5 µM (%) [2]: 92%
CC(=O)OC[C@H]1O[C@@H](N=[N+]=[N-])[C@H](OC(C)=O)[C@@H](OC(C)=O)[C@@H]1OC(C)=O [Compound 10, 2,3,4,6-tetra-O-acetyl-β-D-glucopyranosyl azide] | 101 ± 1 | 99 ± 0 | – | – | – | – | – | – | – | – | Antiparasitic activity (in words) ([1]; 0.1 and 1 µM): neither antiparasitic activity; viability at 72 h, 0.1 µM (in vitro): 98 ± 1%; viability at 72 h, 1 µM (in vitro): 99%
CC(=O)OC[C@H]1O[C@@H](OCCn2cc(CCCC(=O)Nc3ccc([S-])cc3)nn2)[C@H](OC(C)=O)[C@@H](OC(C)=O)[C@@H]1OC(C)=O.CC(C)(C)c1ccc(C[S-])cc1.CC(C)(C)c1ccc(C[S-])cc1.Cc1ccc(C(C)C)cc1.Cc1ccc(C(C)C)cc1.[Cl-].[Ru+2].[Ru+2] [Compound 21] | 87 ± 1 | 1 ± 0 | 87 | 100 ± 1 | 101 ± 0 | – | – | – | – | – | –
CC(=O)OC[C@H]1O[C@@H](OCCCc2cn(Cc3ccccc3[S-])nn2)[C@H](OC(C)=O)[C@@H](OC(C)=O)[C@@H]1OC(C)=O.CC(C)(C)c1ccc(C[S-])cc1.CC(C)(C)c1ccc(C[S-])cc1.Cc1ccc(C(C)C)cc1.Cc1ccc(C(C)C)cc1.[Cl-].[Ru+2].[Ru+2] [Compound 25] | 75 ± 2 | 27 ± 0 | – | 98 ± 1 | 97 ± 1 | – | – | – | – | – | Stability in DMSO-d6 (1H NMR spectra) [3]: no significant modifications
CC(C)(C)c1ccc(C[S-])cc1.CC(C)(C)c1ccc(C[S-])cc1.Cc1ccc(C(C)C)cc1.Cc1ccc(C(C)C)cc1.Oc1ccc([S-])cc1.[Cl-].[Ru+2].[Ru+2] [Compound 2] | – | – | – | – | – | 117 | 66 ± 14 | 2 ± 0 | 76 ± 6 | 46 ± 6 | HFF Viability at 2.5 µM (%) [5]: 56%
CC(C)(C)c1ccc(C[S+]2[Ru-]3[S+](Cc4ccc(C(C)(C)C)cc4)[Ru-]2[S+]3c2ccccc2CN=[N+]=[N-])cc1.Cc1ccc(C(C)C)cc1.Cc1ccc(C(C)C)cc1.[Cl-] (centres unmarked) [Compound 9] | – | – | – | – | – | 48 | 9 ± 1 | 1 ± 1 | 96 ± 1 | 64 ± 1 | HFF Viability at 2.5 µM (%) [5]: 11%
CC(C)(C)c1ccc(C[S+]2[Ru-]3[S+](Cc4ccc(C(C)(C)C)cc4)[Ru-]2[S+]3c2ccccc2CO)cc1.Cc1ccc(C(C)C)cc1.Cc1ccc(C(C)C)cc1.[Cl-] (centres unmarked) [Compound 5] | – | – | – | – | – | 38 | 2 ± 0 | 1 ± 0 | 80 ± 1 | 69 ± 6 | HFF Viability at 2.5 µM (%) [5]: 4%

Source: article PMC9865825, “Synthesis and Antiparasitic Activity of New Trithiolato-Bridged Dinuclear Ruthenium(II)-arene-carbohydrate Conjugates” (Molecules, 2023)
